inhibition, Kdiss and ka data for 42 compounds are collected here from ChEMBL document CHEMBL5390237, “Discovery of Selective Histone Deacetylase 1 and 2 Inhibitors: Screening of a Focused Library Constructed by Click Chemistry, Kinetic Binding Analysis, and Biological Evaluation” (J Med Chem, 2023).

T1 sequence (Q92769 whole entry): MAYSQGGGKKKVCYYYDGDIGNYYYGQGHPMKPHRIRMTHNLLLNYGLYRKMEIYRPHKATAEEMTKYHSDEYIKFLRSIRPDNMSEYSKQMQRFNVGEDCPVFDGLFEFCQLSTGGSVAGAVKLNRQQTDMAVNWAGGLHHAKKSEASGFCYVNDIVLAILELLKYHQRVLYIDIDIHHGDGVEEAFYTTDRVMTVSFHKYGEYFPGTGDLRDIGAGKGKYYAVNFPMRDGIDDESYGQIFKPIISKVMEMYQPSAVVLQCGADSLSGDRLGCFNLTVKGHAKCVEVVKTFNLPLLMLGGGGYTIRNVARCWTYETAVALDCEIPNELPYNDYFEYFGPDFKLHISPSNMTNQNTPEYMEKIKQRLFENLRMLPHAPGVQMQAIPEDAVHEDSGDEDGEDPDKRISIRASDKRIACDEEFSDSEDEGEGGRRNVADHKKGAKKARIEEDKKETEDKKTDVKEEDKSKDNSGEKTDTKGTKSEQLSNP

One assay has as its target T1, Histone deacetylase 2 (Homo sapiens, UniProt Q92769). Briefly: Inhibition of full-length recombinant human C-terminal GST tagged HDAC2 expressed in Sf9 insect cells using aminoluciferin peptide substrate at 100 nM preincubated for 3 hrs followed by substrate addition and measured after 30 mins by HDAC-Glo I/II chemiluminescence assay. Particulars: time 3.5 hrs.
Broadly, the inhibition is the share of the control response that was lost under treatment. Consider `Nc1ccc(-c2cccs2)cc1NC(=O)c1cn(CCC2CCCCC2)nn1`, for which the inhibition was found to be 3%.
As for `Nc1ccc(-c2ccccc2)cc1NC(=O)CCc1cn(CCc2ccc(F)cc2)nn1`, the inhibition stood at 9%.
The same measure, in the same setting: the value for `Cc1cccc(CCn2cc(CCC(=O)Nc3cc(-c4ccccc4)ccc3N)nn2)c1` was 27%; that for `Nc1ccc(-c2ccccc2)cc1NC(=O)c1cn(Cc2ccc3ccccc3n2)nn1` was 6%.
With `Nc1ccc(-c2cccs2)cc1NC(=O)c1ccc(-c2cn(C[S+]([O-])c3ccccc3)nn2)s1` (centres undefined), the inhibition came to 60%.
The same measure, in the same setting: the value for `Nc1ccc(-c2cccnc2)cc1NC(=O)CCc1cn(-c2ccccc2-c2ccccc2)nn1` was 9%; that for `Nc1ccc(-c2cccs2)cc1NC(=O)c1ccc(-c2cn(CCCCCCCC(=O)O)nn2)s1` was 14%.
Regarding `Nc1ccc(-c2ccc(F)cc2)cc1NC(=O)c1cn(Cc2cccc3ccccc23)nn1`, the inhibition was 8%.
Regarding `Nc1ccc(-c2cccs2)cc1NC(=O)CCc1cn(CC(=O)c2ccccc2)nn1`, the inhibition is 13%.
For `Nc1ccc(-c2cccs2)cc1NC(=O)CCc1cn(Cc2ccc3ccccc3n2)nn1`, the inhibition amounted to 22%.
Still for that read-out and setting: the result for `Nc1ccc(-c2cccs2)cc1NC(=O)c1cn(CC23CC4CC(CC(C4)C2)C3)nn1` reads 0%.
Turning to `Nc1ccc(-c2cccs2)cc1NC(=O)CCc1cn(CCc2ccsc2)nn1`, the inhibition was 13%.
The same measure, in the same setting: the result for `Cc1ccc(CCn2cc(CCC(=O)Nc3cc(-c4ccc(F)cc4)ccc3N)nn2)cc1` reads 25%; that for `Nc1ccc(-c2ccsc2)cc1NC(=O)CCc1cn(CCc2cccc(Cl)c2)nn1`, 15%; that for `Nc1ccc(-c2ccsc2)cc1NC(=O)CCc1cn(CC(=O)Nc2ccc(F)cc2)nn1`, 14%.
On the same count and under the same terms, the value for `Nc1ccc(-c2ccccc2)cc1NC(=O)CCc1cn(-c2ccc(O)cc2)nn1` was 3%; that for `Nc1ccc(-c2ccc(F)cc2)cc1NC(=O)CCc1cn(CCCc2ccccc2)nn1` was 12%; that for `Nc1ccc(-c2ccccc2)cc1NC(=O)c1cn(CCC23CC4CC(CC(C4)C2)C3)nn1` was 0%.
As for `Nc1ccc(-c2ccc(F)cc2)cc1NC(=O)CCc1cn(/C=C/c2ccccc2)nn1`, the inhibition stood at 3%.
The same measure, in the same setting: the value for `Nc1ccc(-c2ccsc2)cc1NC(=O)c1cn(CCCCCCC(=O)O)nn1` was 8%; that for `Nc1ccc(-c2cccs2)cc1NC(=O)c1ccc(-c2cn(CCc3cccc(Cl)c3)nn2)cc1` was 22%; that for `Nc1ccc(-c2ccc(F)cc2)cc1NC(=O)c1cn(Cc2cccc(C(=O)O)c2)nn1` was 0%.
On the same count and under the same terms, the value for `Nc1ccc(-c2cccs2)cc1NC(=O)c1cccc(-c2cn(Cc3ccc(OC(F)(F)F)cc3)nn2)c1` was 0%; that for `Cc1csc(CCn2cc(C(=O)Nc3cc(-c4ccc(F)cc4)ccc3N)nn2)n1` was 10%; that for `Nc1ccc(-c2cccs2)cc1NC(=O)c1cn(-c2ccc([N+](=O)[O-])cc2)nn1` was 0%.
Same read-out and setting: the value for `Nc1ccc(-n2cc(CCC(=O)Nc3cc(-c4ccsc4)ccc3N)nn2)cc1` was 24%.
As for `Nc1ccc(-c2ccccc2)cc1NC(=O)CCc1cn(Cc2ccc(-c3ccccc3)cc2)nn1`, the inhibition was determined as 0%.
Same read-out and setting: the result for `Nc1ccc(-c2cccs2)cc1NC(=O)CCc1cn(CCc2cccc(F)c2)nn1` reads 5%; that for `Nc1ccc(-c2cccs2)cc1NC(=O)c1cn(CCc2ccc(F)cc2)nn1`, 0%.
Same read-out and setting: the value for `Nc1ccc(-c2cccs2)cc1NC(=O)c1ccc(-c2cn(CC3CCCCC3)nn2)cc1` was 0%.
On the same count and under the same terms, the value for `Nc1ccc(-c2cccs2)cc1NC(=O)CCc1cn(CCCCCc2ccccc2)nn1` was 7%.
In the case of `Nc1ccc(-c2cccs2)cc1NC(=O)c1ccc(-c2cn(Cc3ccc(-c4ccccc4)cc3)nn2)s1`, the inhibition was determined as 0%.
For the compound `COc1ccccc1CCn1cc(-c2ccc(C(=O)Nc3cc(-c4cccs4)ccc3N)s2)nn1`, the inhibition was 20%.
The same measure, in the same setting: the value for `Nc1ccc(-c2ccccc2)cc1NC(=O)c1cn(CCc2ccc([N+](=O)[O-])cc2)nn1` was 0%; that for `COc1ccc(Cn2cc(CCC(=O)Nc3cc(-c4ccc(F)cc4)ccc3N)nn2)cc1` was 17%.
Take `COc1ccc(-n2cc(CCC(=O)Nc3cc(-c4cccs4)ccc3N)nn2)cc1`: the inhibition came to 14%.
Take `Nc1ccc(-c2cccs2)cc1NC(=O)c1cccc(-c2cn(CCc3cccc4ccccc34)nn2)c1`: the inhibition stood at 0%.
On the same count and under the same terms, the value for `Nc1ccc(-c2cccnc2)cc1NC(=O)CCc1cn(CC(=O)Nc2ccc(F)cc2)nn1` was 0%; that for `Nc1ccc(-c2cccnc2)cc1NC(=O)CCc1cn(-c2ccc([N+](=O)[O-])cc2)nn1` was 2%.
`Nc1ccc(-c2ccc(F)cc2)cc1NC(=O)c1cn(Cc2ccc3ccccc3c2)nn1`: the inhibition stood at 8%.

A further assay concerns the target T1, Histone deacetylase 2. Particulars: Sf9, time 60.0 min.
`CC(=O)Nc1ccc(C(=O)Nc2cc(-c3cccs3)ccc2N)cc1` returned a Kdiss of 6.67e-05 s⁻¹.
On to `Nc1ccccc1NC(=O)c1ccc(CNC(=O)OCc2cccnc2)cc1`, for which the Kdiss was found to be 5e-05 s⁻¹.

The target of another assay is T1, Histone deacetylase 2. The following applies: Sf9, time 60.0 min. The source holds these as a separate data set.
With `CC(=O)Nc1ccc(C(=O)Nc2cc(-c3cccs3)ccc2N)cc1`, the ka came out at 13300 M⁻¹ s⁻¹.
Still for that read-out and setting: the result for `Nc1ccccc1NC(=O)c1ccc(CNC(=O)OCc2cccnc2)cc1` reads 7670 M⁻¹ s⁻¹.
